Assay: gradient 5% acetonitrile 3 min, to 50% in 2 min, to 85% in 15 min, held 3 min, 100 µL/min
Settings: column: Zorbax Extend-C18 2.1 x 50 mm; eluents: water / acetonitrile, 0.1% formic acid
In short: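 Retention time was recorded from adduct peaks, which were picked computationally and each inspected manually. Pure standards ran in mixtures of ~100 molecules on HPLC coupled to a quadrupole time-of-flight mass spectrometer, in positive and negative ionization mode, through a Zorbax Extend-C18 column (2.1 × 50 mm, 1.8 μm) at 100 μL/min. Eluents were water and acetonitrile, each with 0.1% formic acid.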
An RP-LC retention time of 1240 s was found for `Cc1sc(-c2nc(C(C)C)cs2)cc1S(=O)(=O)NC1CCCC1` in this work. An RP-LC retention time of 680 s was found for `O=S(=O)(c1cccc(C(F)(F)F)c1)N1CCC(CN2CCCCC2)CC1` in this work. An RP-LC retention time of 729 s was found for `COc1ccc(NC(=O)N2C[C@@H]3C[C@H]2C[C@@H]3NC(=O)c2cccs2)cc1F` in this work. An RP-LC retention time of 563 s was found for `Cc1ccc2[nH]cc(NC(=O)NCCN(C)C)c(=O)c2c1` in this work. An RP-LC retention time of 932 s was found for `C=CCN1C(=O)C(C)(C)COc2cc(NS(=O)(=O)C3CCCCC3)ccc21` in this work. An RP-LC retention time of 962 s was found for `CC1=C(c2ccc(C)c(C)c2)S(=O)(=O)N=C1N1CCC(NC(=O)CCC(C)C)CC1` in this work. An RP-LC retention time of 630 s was found for `Cc1c(C(=O)NCCCn2ncccc2=O)nnn1-c1nccs1` in this work. An RP-LC retention time of 868 s was found for `O=C(Nc1cccc(OCc2nnc(-c3ccccc3)o2)c1)c1ccoc1` in this work. An RP-LC retention time of 974 s was found for `Cc1ccc(-n2ccc(=O)c(-c3nc(-c4cccc(C)c4)no3)n2)cc1` in this work. An RP-LC retention time of 1090 s was found for `COc1cccc(Cn2c(C(=O)N3CCC(C(=O)NCC4CCCCC4)CC3)cc3ccsc32)c1` in this work. An RP-LC retention time of 673 s was found for `Cc1ccc(NC(=O)Nc2ccc3nnc(C)n3c2)cc1` in this work. An RP-LC retention time of 691 s was found for `Cc1ccc(-c2ncccc2CNS(=O)(=O)c2cccc(C#N)c2)cc1` in this work. An RP-LC retention time of 869 s was found for `COC(=O)c1cc(S(=O)(=O)N2CCCC2C(=O)Nc2ccc(C)cc2)cn1C` (stereo not given) in this work. An RP-LC retention time of 1050 s was found for `Cc1nc2cc(-c3noc(Cc4c(F)cccc4Cl)n3)ccc2o1` in this work. An RP-LC retention time of 927 s was found for `COc1ccc(S(=O)(=O)NCc2ccc3c(c2)CCN3C(=O)c2ccc(F)cc2)cc1` in this work. An RP-LC retention time of 578 s was found for `COCCN1C(=O)[C@H]2CN(Cc3cc(OC)c(OC)c(OC)c3)C[C@H]2C1=O` in this work. An RP-LC retention time of 841 s was found for `O=C(CCSc1ccccc1)NCC(O)c1cccc2ccccc12` (stereo not given) in this work. An RP-LC retention time of 1150 s was found for `COc1ccc2c(c1)CCc1sc(NC(=O)c3ccc(C)cc3)nc1-2` in this work. An RP-LC retention time of 881 s was found for `COc1ccc(C2CC(=O)N(c3cccc(Cl)c3)C(=O)C2)cc1OC` in this work. An RP-LC retention time of 1180 s was found for `Cc1ccc(-c2nc(-c3ccc(S(=O)(=O)N4CCC(C(=O)N5CCCC5)CC4)cc3)no2)cc1C` in this work. An RP-LC retention time of 757 s was found for `O=C(Cc1nc(-c2ccccc2)n[nH]1)Nc1ccc(F)c(F)c1` in this work. An RP-LC retention time of 1110 s was found for `COc1cccc(CN2CN(c3ccc(C)cc3)c3ncccc3S2(=O)=O)c1` in this work. An RP-LC retention time of 1110 s was found for `CN(CC1CCCO1)c1nc(-c2ccc([N+](=O)[O-])cc2)cs1` (stereo not given) in this work. An RP-LC retention time of 823 s was found for `CCc1onc(C)c1C1CCCN1C(=O)Cc1ccccc1F` (stereo not given) in this work. An RP-LC retention time of 1010 s was found for `Cc1cc(C)c(NC(=O)C2CCN(S(=O)(=O)c3c(C)nn(-c4ccccc4)c3C)CC2)c(C)c1` in this work. An RP-LC retention time of 739 s was found for `CCOc1ccc(-c2nc3ncccn3c2NCc2ccccc2OC)cc1OC` in this work. An RP-LC retention time of 907 s was found for `CC(C)c1ccc(NC(=O)C2CCN(C(=O)C(C)(C)C)CC2)cc1` in this work. An RP-LC retention time of 569 s was found for `Cc1cccc(C(=O)N2CCc3nc[nH]c3C2)c1` in this work. An RP-LC retention time of 956 s was found for `Cn1nc(C(=O)Nc2ccccc2)c2c1CCN(C(=O)Nc1ccc(Br)cc1F)C2` in this work. An RP-LC retention time of 664 s was found for `O=C(c1ccc(Cl)s1)N1CCC(n2cnnc2C2CC2)CC1` in this work. An RP-LC retention time of 663 s was found for `O=C(NCCS(=O)(=O)N1CCN(c2ncccn2)CC1)c1cccs1` in this work. An RP-LC retention time of 688 s was found for `Cc1nc(NC(=O)C2CC(=O)N(c3n[nH]c4cccc(F)c34)C2)sc1C` (stereo not given) in this work. An RP-LC retention time of 1030 s was found for `Cc1ccc(-c2nc3cnccn3c2Nc2ccc(Br)cc2)cc1` in this work. An RP-LC retention time of 723 s was found for `Cc1cc(N2CCOCC2)nc(N2CCN(C(=O)c3ccc(C(C)(C)C)cc3)CC2)n1` in this work. An RP-LC retention time of 683 s was found for `CCCNC(=O)C1CCCN1C(=O)c1ccc(NC(=O)C(C)(C)C)cc1` (stereo not given) in this work. An RP-LC retention time of 907 s was found for `CCOC(=O)/C(=N\O)C1=CSC2=NNC(C)(C)N12` in this work. An RP-LC retention time of 1320 s was found for `C[C@H](NC(=O)C(C)(C)Oc1ccc(C(F)(F)F)cn1)[C@@H](Cc1ccc(Cl)cc1)c1cccc(C#N)c1` in this work. An RP-LC retention time of 666 s was found for `COc1ccccc1N1CCN(CCCCNC(=O)c2ccc3ccccc3c2)CC1` in this work. An RP-LC retention time of 803 s was found for `Cc1ccc(-c2nccn3cc(C(=O)NC4CC4)nc23)cc1` in this work. An RP-LC retention time of 816 s was found for `COc1ccc(OC)c(S(=O)(=O)N2CC(c3nc(-c4ccsc4)nn3C)C2)c1` in this work. An RP-LC retention time of 787 s was found for `CCc1nc(-c2csc(S(=O)(=O)N3CCCC(C(=O)NC4CC4)C3)c2)no1` (stereo not given) in this work. An RP-LC retention time of 842 s was found for `Clc1ccc(Nc2c(-c3ccc(N4CCOCC4)cc3)nc3cnccn23)cc1` in this work. An RP-LC retention time of 722 s was found for `Cc1ccccc1CNC(=O)CCc1c(-c2ccc(Br)cc2)nc2ccccn12` in this work. An RP-LC retention time of 914 s was found for `CC(C)n1cc(S(=O)(=O)NCc2ccccc2Cl)c2cccnc21` in this work. An RP-LC retention time of 834 s was found for `COc1ccc(F)cc1S(=O)(=O)N1CCc2nn(CC3CC3)c(=O)n2CC1` in this work.

Reference: the METLIN SMRT retention time set (Domingo-Almenara et al. 2019)
